Consider 9 compounds from ChEMBL document CHEMBL1201862, “PubChem BioAssay data set” (2004).

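Cells were grown in 96-well plates and exposed to each compound for 48 hours at five concentrations; endpoints were interpolated linearly between bracketing concentrations, or set to the highest concentration if not reached. GI50 = concentration required for 50% inhibition of growth.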 The source made the active and inactive calls. No stated cut-off is given here; in the data, active = GI50 up to about 1.1 µM and inactive = higher.

What all share (assay): growth of human tumour cells (NCI), 48 h
The subject of assay [1] is NCI/ADR-RES.
The test system of assay [2] is MDA-MB-435.
For assay [3], the system named is SF-539.
For assay [4], the system named is HOP-62.
For assay [5], the system named is IGROV-1.
For assay [6], the system named is SK-MEL-5.
For assay [7], the system named is Malme-3M.
For assay [8], the system named is M14.
The test system of assay [9] is ACHN.
The test system of assay [10] is SNB-75.
In assay [11] the test system is SF-268.
Assay [12] has as its system UACC-62.
In assay [13] the test system is MCF7.
Assay [14] has as its system U-251.
Assay [15] concerns KM12.
Assay [16] relates to SK-MEL-2.
In assay [17] the test system is HL-60.
Assay [18] concerns MDA-N.

For the compound `COC(=O)CCC(=O)NC1c2cccc3cccc(c23)Cn2c(=O)n(C)c(=O)n21` (centres undefined), the GI50 in [1], in assay [2], in [3], in [4], in assay [5] and in assay [6] was > 100 µM (inactive) throughout. The GI50 in assay [7], in [8], in [9], in assay [10], in [11] and in assay [12] was > 100 µM (inactive) in each case. For the same compound, the GI50 in assay [13], in assay [14], in assay [15] and in assay [16] was > 100 µM (inactive) in each case.

As to `COc1ccc2oc(=O)c(-c3csc(-c4ccccc4)n3)cc2c1`, the GI50 is > 100 µM (inactive) in assay [2]; 16.9 µM (inactive) in [3]; 17.4 µM (inactive) in [4]; 32.6 µM (inactive) in [5]; 45.2 µM (inactive) in [6]; > 100 µM (inactive) in [17]. Further, the GI50 in assay [8] was > 100 µM (inactive); in [9] it was 32 µM (inactive); in [10], 37.3 µM (inactive); in assay [11] it was 28.8 µM (inactive); in [18], > 100 µM (inactive); in assay [12] it was 34.5 µM (inactive). The GI50 in assay [13] is 94.6 µM (inactive); in assay [14] it was 21.9 µM (inactive); in assay [15] it was > 100 µM (inactive); in [16], > 100 µM (inactive).

On to `COC(=O)/C(=C/CC(N=C(c1ccccc1)c1ccccc1)C(=O)OC)N=C(c1ccccc1)c1ccccc1` (centres undefined), for which the GI50 in assay [4], in assay [5], in [6], in assay [17], in assay [7] and in assay [8] was > 100 µM (inactive) each time. Besides, the GI50 in [9] is > 100 µM (inactive); in assay [10] it was 12.4 µM (inactive); in assay [11], > 100 µM (inactive); in assay [12] it was > 100 µM (inactive); in assay [14], > 100 µM (inactive); in assay [15], > 100 µM (inactive). Moreover, in assay [16], the GI50 was > 100 µM (inactive).

Regarding `O=C1N2CCC[C@H]2CS1(=O)=O`, the GI50 was 30 µM (inactive) in assay [1]; 17.1 µM (inactive) in assay [2]; 29.5 µM (inactive) in [3]; 16.1 µM (inactive) in assay [4]; 15.5 µM (inactive) in assay [5]; 17.5 µM (inactive) in assay [6]. Besides, the GI50 in [17] is 19.1 µM (inactive); in assay [7], 13.2 µM (inactive); in assay [8] it was 14.6 µM (inactive); in assay [9], 15.2 µM (inactive); in assay [10], 18.6 µM (inactive); in assay [11], 20.7 µM (inactive). Besides, the GI50 was 16.4 µM (inactive) in assay [12]; 6.73 µM (inactive) in assay [13]; 16.5 µM (inactive) in assay [14]; 16.6 µM (inactive) in assay [15]; 17.6 µM (inactive) in assay [16].

Take `O=c1[nH]nc(Cc2ccccc2)n1/N=C/c1ccco1`: the GI50 in assay [1], in assay [2], in assay [3], in [4], in assay [7] and in [8] was > 100 µM (inactive) each time. Also, the GI50 in [9] is > 100 µM (inactive); in [10], > 100 µM (inactive); in assay [11] it was > 100 µM (inactive); in [12] it was > 100 µM (inactive); in assay [13], 48.1 µM (inactive); in [14], > 100 µM (inactive). Further, the GI50 in assay [15] was 77.1 µM (inactive); in assay [16], > 100 µM (inactive).

With `O=[N+]([O-])c1cccc(/N=C2\c3ccccc3CN2c2cccc([N+](=O)[O-])c2)c1`, the GI50 in [2] is > 100 µM (inactive); in [3], 71 µM (inactive); in assay [4] it was > 100 µM (inactive); in [5] it was > 100 µM (inactive); in assay [6], > 100 µM (inactive); in assay [8] it was > 100 µM (inactive). Moreover, the GI50 in assay [9] is 74.5 µM (inactive); in assay [10], 24.8 µM (inactive); in assay [11], 81.5 µM (inactive); in [18] it was > 100 µM (inactive); in assay [12], > 100 µM (inactive); in assay [13], 33.7 µM (inactive). Further, the GI50 in assay [14], in assay [15] and in [16] was > 100 µM (inactive) each time.

`C[C@]12CC(c3ccccc3O1)C(C(=O)Nc1nc(C34CC5CC(CC(C5)C3)C4)cs1)C(=O)N2` (some centres undefined): the GI50 in assay [1] was > 100 µM (inactive); in [2], > 100 µM (inactive); in assay [4] it was > 100 µM (inactive); in [5] it was 75 µM (inactive); in assay [6] it was > 100 µM (inactive); in [17], > 100 µM (inactive). For the same compound, the GI50 in assay [7] was 34.7 µM (inactive); in assay [8] it was > 100 µM (inactive); in assay [9] it was > 100 µM (inactive); in assay [10], > 100 µM (inactive); in assay [11], > 100 µM (inactive); in assay [12] it was > 100 µM (inactive). Also, the GI50 in assay [13], in assay [14], in [15] and in assay [16] was > 100 µM (inactive) each time.

Turning to `O=c1[nH]n(CCc2ccccc2CCl)c2ccc([N+](=O)[O-])cc12`, the GI50 was 31.8 µM (inactive) in assay [1]; 63.5 µM (inactive) in assay [2]; > 100 µM (inactive) in assay [3]; > 100 µM (inactive) in [4]; 83.9 µM (inactive) in assay [5]; 29.7 µM (inactive) in assay [6]. Moreover, the GI50 in [17] is 29.4 µM (inactive); in [7], > 100 µM (inactive); in [8], 58.1 µM (inactive); in [9], > 100 µM (inactive); in [11], > 100 µM (inactive); in assay [12] it was 45.8 µM (inactive). The GI50 is 48.5 µM (inactive) in assay [13], 81.8 µM (inactive) in [14], 83.8 µM (inactive) in assay [15] and > 100 µM (inactive) in [16].

With `CSc1ccsc1-c1sc(-c2cc(SC)c(-c3sc(-c4cc(SC)c(-c5sccc5SC)s4)cc3SC)s2)cc1SC`, the GI50 was 45.7 µM (inactive) in assay [1]; 20.9 µM (inactive) in [2]; > 100 µM (inactive) in assay [3]; > 100 µM (inactive) in assay [4]; > 100 µM (inactive) in [5]; > 100 µM (inactive) in [6]. In addition, the GI50 in assay [17] is 0.356 µM (active); in assay [7] it was 29.4 µM (inactive); in assay [8], > 100 µM (inactive); in [9], 32.9 µM (inactive); in assay [11], > 100 µM (inactive); in assay [12], 42.2 µM (inactive). Besides, the GI50 is 57.1 µM (inactive) in [13], 67.3 µM (inactive) in [14], 65.2 µM (inactive) in assay [15] and > 100 µM (inactive) in assay [16].
